Test [1] has as its target GDP-bound NRAS wild-type protein (Homo sapiens, UniProt P01111). In words: Binding to NRAS by surface plasmon resonance (SPR), Single Cycle Kinetics. Particulars: SPR; for NRAS/KRAS (ratio of KD value with respect to NRAS to KD value with respect to KRAS): GDP-bound NRAS wild-type vs GDP-bound KRAS wild-type. (SPR reads the build-up and loss of mass on a sensor chip optically.)

The target in test [2] is GDP-bound HRAS wild-type protein (Homo sapiens, UniProt P01112). In words: Binding to HRAS by surface plasmon resonance (SPR), Single Cycle Kinetics. The conditions noted are these: SPR; for HRAS/KRAS (ratio of KD value with respect to HRAS to KD value with respect to KRAS): GDP-bound HRAS wild-type vs GDP-bound KRAS wild-type.
Chain of GDP-bound HRAS wild-type protein (P01112 whole entry): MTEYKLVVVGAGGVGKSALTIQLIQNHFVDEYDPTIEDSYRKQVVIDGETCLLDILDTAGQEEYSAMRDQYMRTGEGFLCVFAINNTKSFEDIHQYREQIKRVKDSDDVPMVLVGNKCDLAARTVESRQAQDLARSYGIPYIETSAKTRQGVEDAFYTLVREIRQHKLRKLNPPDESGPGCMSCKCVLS

This is an account of results in US20250230193A1, “CYCLIC COMPOUND HAVING SELECTIVE KRAS INHIBITORY EFFECT ON HRAS AND NRAS” (CHUGAI SEIYAKU KABUSHIKI KAISHA, priority 2022, published 2025).

Where a SMILES comes first, the peptide text is derived from it. Bridges are numbered along the chain shown (N, C = ends). [ ]: non-standard residue; d: D form. The star is where a group is joined. hPhe(3-Cl-4-CF3) = N[C@@H](CCc1ccc(C(F)(F)F)c(Cl)c1)C(=O)O; NPrPhe(4-CF3) = CCCN[C@@H](Cc1ccc(C(F)(F)F)cc1)C(=O)O; Pip(4,4-F2) = O=C(O)[C@@H]1CC(F)(F)CCN1; NMeGly(cPent) = CN[C@H](C(=O)O)C1CCCC1; NMeD = CN[C@@H](CC(=O)O)C(=O)O; NMeL = CN[C@@H](CC(C)C)C(=O)O; Morpholide = C1CN(*)CCO1; Ac5c = NC1(C(=O)O)CCCC1; Aze = O=C(O)[C@@H]1CCN1; Sar = CNCC(=O)O

Chain of GDP-bound NRAS wild-type protein (P01111 whole entry): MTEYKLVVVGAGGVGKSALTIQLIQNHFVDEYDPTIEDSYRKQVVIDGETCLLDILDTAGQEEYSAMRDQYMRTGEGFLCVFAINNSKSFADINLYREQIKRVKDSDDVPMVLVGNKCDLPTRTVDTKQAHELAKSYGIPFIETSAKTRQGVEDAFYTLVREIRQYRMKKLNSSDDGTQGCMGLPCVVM

In the case of `CCO[C@@H]1C[C@H]2C(=O)NC3(CC(C)(C)C3)C(=O)N(C)[C@@H](C(CC)CC)C(=O)N(C)[C@H](C(=O)N(C)C)CC(=O)N(C)[C@@H](C(C)C)C(=O)N[C@@H]([C@@H](C)CC)C(=O)N(C)CC(=O)N(C)[C@H]3C/C=C\CCN(C3=O)[C@@H](Cc3ccc(C)cc3)C(=O)N(C)CC(=O)N[C@@H](CCc3ccc(Cl)c(Cl)c3)C(=O)N2C1` [PP2122], the “NRAS/KRAS (ratio of KD value with respect to NRAS to KD value with respect to KRAS)” value in test [1] is “AA (a compound having 20 or more is denoted as AA)”. Further, the “HRAS/KRAS (ratio of KD value with respect to HRAS to KD value with respect to KRAS)” value in test [2] is “A (a compound having 10 or more and less than 20 is denoted as A)”.

For the compound `CC[C@H](C)[C@@H]1NC(=O)[C@H](CC(C)C)N(C)C(=O)C[C@@H](C(=O)N2CCOCC2)N(C)C(=O)[C@H](C2CCCC2)N(C)C(=O)C2(CCCC2)NC(=O)[C@@H]2CCCN2C(=O)[C@H](CCc2ccc(C(F)(F)F)c(Cl)c2)NC(=O)CN(C)C(=O)[C@H](Cc2ccc(C(F)(F)F)cc2)N2CC=CC[C@@H](C2=O)N(C)C(=O)CN(C)C1=O` [PP0462], the “NRAS/KRAS (ratio of KD value with respect to GDP-bound NRAS wild-type protein to KD value with respect to KRAS)” value in test [1] is “C (A compound having a KD ratio of 0.1 or more and less than 3 is denoted as C)”. Moreover, the “HRAS/KRAS (ratio of KD value with respect to GDP-bound HRAS wild-type protein to KD value with respect to KRAS)” value in test [2] is “C (A compound having a KD ratio of 0.1 or more and less than 3 is denoted as C)”.

Consider `CC[C@H](C)[C@@H]1NC(=O)[C@H](CC(C)C)N(C)C(=O)C[C@@H](C(=O)N2CCOCC2)N(CC)C(=O)[C@H](C2CCCC2)N(C)C(=O)C2(CCCC2)NC(=O)[C@@H]2CCCN2C(=O)[C@H](CCc2ccc(C(F)(F)F)c(Cl)c2)NC(=O)CN(C)C(=O)[C@H](Cc2ccc(F)cc2)N2CCCCC[C@@H](C2=O)N(C)C(=O)CN(C)C1=O` [PP0970], for which the “NRAS/KRAS (ratio of KD value with respect to NRAS to KD value with respect to KRAS)” value in test [1] (KD ratio) is “B (a compound having 3 or more and less than 10 is denoted as B)”. The “HRAS/KRAS (ratio of KD value with respect to HRAS to KD value with respect to KRAS)” value in test [2] (KD ratio) is “B (a compound having 3 or more and less than 10 is denoted as B)”.

For `CCCN1C(=O)CN(C)C(=O)CN(C)C(=O)[C@H]([C@@H](C)CC)NC(=O)[C@H](CC(C)C)N(C)C(=O)C[C@@H](C(=O)N2CCOCC2)N(C)C(=O)[C@H](C2CCCC2)N(C)C(=O)C2(CCCC2)NC(=O)[C@@H]2CC(F)(F)CCN2C(=O)[C@H](CCc2ccc(C(F)(F)F)c(Cl)c2)NC(=O)CN(C)C(=O)[C@@H]1Cc1ccc(C(F)(F)F)cc1` [PP0264] ([NMeL]I[Sar][Sar][NPrPhe(4-CF3)][Sar][hPhe(3-Cl-4-CF3)][Pip(4,4-F2)][Ac5c][NMeGly(cPent)][NMeD]-Morpholide; lactam N-11), in test [1], the “NRAS/KRAS (ratio of KD for GDP-bound NRAS wild-type to KD for KRAS)” value is “B (a compound having 3 or more and less than 10 is denoted as B)”. Further, the “HRAS/KRAS (ratio of KD for GDP-bound HRAS wild-type to KD for KRAS)” value in test [2] was “C (A compound having a KD ratio of 0.1 or more and less than 3 is denoted as C)”.

Consider `CCCN1C(=O)CN(C)C(=O)[C@@H]2CCN2C(=O)[C@H]([C@@H](C)CC)NC(=O)[C@H](CC(C)C)N(C)C(=O)C[C@@H](C(=O)N2CCOCC2)N(C)C(=O)[C@H](C2CCCC2)N(C)C(=O)C2(CCCC2)NC(=O)[C@@H]2CCN2C(=O)[C@H](CCc2ccc(C(F)(F)F)c(Cl)c2)NC(=O)CN(C)C(=O)[C@@H]1Cc1ccc(C(F)(F)F)cc1` [PP0307] ([NMeL]I[Aze][Sar][NPrPhe(4-CF3)][Sar][hPhe(3-Cl-4-CF3)][Aze][Ac5c][NMeGly(cPent)][NMeD]-Morpholide; lactam N-11), for which, in test [1], the “NRAS/KRAS (ratio of KD for GDP-bound NRAS wild-type to KD for KRAS)” value is “B (a compound having 3 or more and less than 10 is denoted as B)”. In test [2], the “HRAS/KRAS (ratio of KD for GDP-bound HRAS wild-type to KD for KRAS)” value was “B (a compound having 3 or more and less than 10 is denoted as B)”.

`CC[C@H](C)[C@@H]1NC(=O)[C@H](COC)N(C)C(=O)C[C@@H](C(=O)N(C)C)N(C)C(=O)[C@H](C2CCCC2)N(C)C(=O)C2(CC(C)(C)C2)NC(=O)[C@@H]2C[C@H](C)CN2C(=O)[C@H](CCc2ccc(C(F)(F)F)c(OC)c2)NC(=O)CN(C)C(=O)[C@H](Cc2ccc(C)cc2)N2CC/C=C\C[C@@H](C2=O)N(C)C(=O)[C@@H]2C[C@H](OC)CN2C1=O` [PP2390]: the “NRAS/KRAS (ratio of KD value with respect to NRAS to KD value with respect to KRAS)” value in test [1] is “A (a compound having 10 or more and less than 20 is denoted as A)”. For the same compound, the “HRAS/KRAS (ratio of KD value with respect to HRAS to KD value with respect to KRAS)” value in test [2] was “B (a compound having 3 or more and less than 10 is denoted as B)”.

Turning to `CCCO[C@@H]1C[C@H]2C(=O)NC3(CC(C)(C)C3)C(=O)N(C)[C@@H](C3CCCC3)C(=O)N(C)[C@H](C(=O)N3CCCCC3)CC(=O)N(C)[C@H]3CCCc4ccc(cc4)C[C@@H](C(=O)N(C)CC(=O)N[C@@H](CCc4ccc(C(F)(F)F)c(OC)c4)C(=O)N2C1)N1CC/C=C\C[C@@H](C1=O)N(C)C(=O)CN(C)C(=O)[C@H]([C@@H](C)CC)NC3=O` [PP3064], the “NRAS/KRAS (ratio of KD value with respect to GDP-bound NRAS wild-type protein to KD value with respect to KRAS)” value in test [1] (GDP-bound wild-type proteins) is “B (a compound having 3 or more and less than 10 is denoted as B)”. Besides, the “HRAS/KRAS (ratio of KD value with respect to GDP-bound HRAS wild-type protein to KD value with respect to KRAS)” value in test [2] (GDP-bound wild-type proteins) was “B (a compound having 3 or more and less than 10 is denoted as B)”.
